The target of data set [1] is T1, Tyrosine-protein kinase TXK (Homo sapiens, UniProt P42681).
T1 sequence (P42681 whole entry): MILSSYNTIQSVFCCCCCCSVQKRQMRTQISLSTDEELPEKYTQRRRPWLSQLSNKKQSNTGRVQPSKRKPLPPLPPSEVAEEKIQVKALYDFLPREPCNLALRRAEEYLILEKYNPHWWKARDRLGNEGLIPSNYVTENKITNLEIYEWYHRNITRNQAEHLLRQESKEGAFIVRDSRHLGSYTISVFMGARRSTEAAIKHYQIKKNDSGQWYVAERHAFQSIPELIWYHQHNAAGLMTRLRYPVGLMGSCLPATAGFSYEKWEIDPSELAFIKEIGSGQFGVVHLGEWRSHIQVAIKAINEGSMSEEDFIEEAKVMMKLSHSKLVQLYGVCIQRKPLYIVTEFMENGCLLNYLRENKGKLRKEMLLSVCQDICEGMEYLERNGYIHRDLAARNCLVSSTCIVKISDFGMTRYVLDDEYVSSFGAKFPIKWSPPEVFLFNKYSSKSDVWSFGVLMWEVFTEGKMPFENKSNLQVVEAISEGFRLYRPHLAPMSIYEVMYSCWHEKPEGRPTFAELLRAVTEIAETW
As to the kind of experiment: Binding affinity to TXK (unknown origin) assessed as dissociation constant by KINOMEscan analysis.

Data set [2] in a line: Inhibition of CD69 expression on CD19 positive B cells in anti-IgD stimulated human whole blood. In kind it is functional, tissue-based. Particulars: CD19 positive B cell.
The next data set addresses T2, Cytochrome P450 2C8 (Homo sapiens, UniProt P10632).
T2 sequence (P10632 whole entry): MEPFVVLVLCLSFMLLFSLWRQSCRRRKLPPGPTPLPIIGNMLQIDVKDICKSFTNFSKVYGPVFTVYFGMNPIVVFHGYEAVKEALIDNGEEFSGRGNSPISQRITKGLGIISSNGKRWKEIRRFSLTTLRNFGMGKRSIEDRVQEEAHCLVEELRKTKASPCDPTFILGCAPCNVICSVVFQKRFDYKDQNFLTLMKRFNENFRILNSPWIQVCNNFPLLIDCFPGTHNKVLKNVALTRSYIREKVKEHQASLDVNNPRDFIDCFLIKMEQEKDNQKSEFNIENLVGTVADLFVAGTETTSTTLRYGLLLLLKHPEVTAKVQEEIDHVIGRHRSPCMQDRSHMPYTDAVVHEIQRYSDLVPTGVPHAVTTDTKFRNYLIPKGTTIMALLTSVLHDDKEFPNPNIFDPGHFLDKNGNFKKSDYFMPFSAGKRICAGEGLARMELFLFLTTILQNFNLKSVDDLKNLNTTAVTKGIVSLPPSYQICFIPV
As to the kind of experiment: Inhibition of human CYP2C8. The format is ADME.

The next data set concerns MDR1. In words: Permeability across apical to basolateral side in dog MDCK-MDR1 cells. The format is ADME, cell-based, Canis lupus familiaris. To be noted: read-out: permeability.
For data set [3], the target named is Tyrosine-protein kinase Blk (Homo sapiens, UniProt P51451). In words: Binding affinity to BLK (unknown origin) assessed as dissociation constant by KINOMEscan analysis.
Data set [4] deals with Receptor tyrosine-protein kinase erbB-4 (Homo sapiens, UniProt Q15303). As to the kind of experiment: Binding affinity to ERBB4 (unknown origin) assessed as dissociation constant by KINOMEscan analysis.
The next data set concerns the target T3, Cytochrome P450 2B6 (Homo sapiens, UniProt P20813).
T3 sequence (P20813 whole entry): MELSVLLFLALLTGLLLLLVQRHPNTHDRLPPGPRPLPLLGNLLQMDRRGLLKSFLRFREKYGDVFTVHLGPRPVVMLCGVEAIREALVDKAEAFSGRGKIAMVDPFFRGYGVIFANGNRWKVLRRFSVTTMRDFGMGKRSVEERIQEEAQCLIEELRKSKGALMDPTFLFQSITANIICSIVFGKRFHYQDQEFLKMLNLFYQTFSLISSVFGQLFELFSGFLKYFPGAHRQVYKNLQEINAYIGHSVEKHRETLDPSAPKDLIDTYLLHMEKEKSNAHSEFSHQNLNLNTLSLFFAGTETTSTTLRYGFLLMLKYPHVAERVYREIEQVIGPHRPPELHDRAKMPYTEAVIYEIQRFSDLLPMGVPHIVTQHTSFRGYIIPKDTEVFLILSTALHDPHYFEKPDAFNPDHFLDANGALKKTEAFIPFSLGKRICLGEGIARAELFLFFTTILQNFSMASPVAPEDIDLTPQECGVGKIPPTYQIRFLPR
In words: Inhibition of human CYP2B6. In kind it is ADME.

Data set [5] deals with Tyrosine-protein kinase BTK (Homo sapiens, UniProt Q06187). As to the kind of experiment: Inhibition of BTK (unknown origin) at 1 uM by KINOMEscan assay relative to control.
The target in data set [6] is Epidermal growth factor receptor (Homo sapiens, UniProt P00533). In words: Binding affinity to EGFR (unknown origin) assessed as dissociation constant by KINOMEscan analysis.
Data set [7] is described as follows: Metabolic stability in rat liver microsomes assessed as intrinsic clearance. The format is ADME, Microsome. To be noted: read-out: CLH. In general terms: Liver microsomes are vesicles of endoplasmic reticulum, rich in cytochrome P450 enzymes.
In a further data set the test system is BCRP. In words: Permeability across apical to basolateral side in dog MDCK-BCRP cells. The format is ADME, cell-based, Canis lupus familiaris. To be noted: read-out: permeability.

Usually Kd stands for the equilibrium constant for the complex coming apart. Broadly, the IC50 is the concentration at which inhibition is half-maximal. Read a low IC50 as greater potency in that assay. A word on the inhibition: it is how much of the control response was suppressed. Low values mean a response near the control, high ones a response far below the control.

Each structure is given as a SMILES string.

Chain of Tyrosine-protein kinase BTK (Q06187 whole entry): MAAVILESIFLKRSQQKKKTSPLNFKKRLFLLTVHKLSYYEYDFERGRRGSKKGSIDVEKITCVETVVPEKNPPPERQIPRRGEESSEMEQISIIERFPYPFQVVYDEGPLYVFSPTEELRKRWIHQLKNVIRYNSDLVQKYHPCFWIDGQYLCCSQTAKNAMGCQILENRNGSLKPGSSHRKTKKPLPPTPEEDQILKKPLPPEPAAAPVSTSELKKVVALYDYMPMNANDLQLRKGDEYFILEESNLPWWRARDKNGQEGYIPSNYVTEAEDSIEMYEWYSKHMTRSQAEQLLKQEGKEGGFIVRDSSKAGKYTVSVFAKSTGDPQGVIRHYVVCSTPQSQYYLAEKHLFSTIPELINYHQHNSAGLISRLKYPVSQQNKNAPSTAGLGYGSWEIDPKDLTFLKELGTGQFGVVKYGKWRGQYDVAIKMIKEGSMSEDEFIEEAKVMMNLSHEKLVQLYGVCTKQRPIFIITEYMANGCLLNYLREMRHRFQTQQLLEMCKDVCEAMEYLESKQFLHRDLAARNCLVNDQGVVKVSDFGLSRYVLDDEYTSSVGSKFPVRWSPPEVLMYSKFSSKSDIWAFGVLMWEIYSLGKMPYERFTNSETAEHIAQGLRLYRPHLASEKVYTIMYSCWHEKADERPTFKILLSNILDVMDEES
Chain of Epidermal growth factor receptor (P00533 whole entry): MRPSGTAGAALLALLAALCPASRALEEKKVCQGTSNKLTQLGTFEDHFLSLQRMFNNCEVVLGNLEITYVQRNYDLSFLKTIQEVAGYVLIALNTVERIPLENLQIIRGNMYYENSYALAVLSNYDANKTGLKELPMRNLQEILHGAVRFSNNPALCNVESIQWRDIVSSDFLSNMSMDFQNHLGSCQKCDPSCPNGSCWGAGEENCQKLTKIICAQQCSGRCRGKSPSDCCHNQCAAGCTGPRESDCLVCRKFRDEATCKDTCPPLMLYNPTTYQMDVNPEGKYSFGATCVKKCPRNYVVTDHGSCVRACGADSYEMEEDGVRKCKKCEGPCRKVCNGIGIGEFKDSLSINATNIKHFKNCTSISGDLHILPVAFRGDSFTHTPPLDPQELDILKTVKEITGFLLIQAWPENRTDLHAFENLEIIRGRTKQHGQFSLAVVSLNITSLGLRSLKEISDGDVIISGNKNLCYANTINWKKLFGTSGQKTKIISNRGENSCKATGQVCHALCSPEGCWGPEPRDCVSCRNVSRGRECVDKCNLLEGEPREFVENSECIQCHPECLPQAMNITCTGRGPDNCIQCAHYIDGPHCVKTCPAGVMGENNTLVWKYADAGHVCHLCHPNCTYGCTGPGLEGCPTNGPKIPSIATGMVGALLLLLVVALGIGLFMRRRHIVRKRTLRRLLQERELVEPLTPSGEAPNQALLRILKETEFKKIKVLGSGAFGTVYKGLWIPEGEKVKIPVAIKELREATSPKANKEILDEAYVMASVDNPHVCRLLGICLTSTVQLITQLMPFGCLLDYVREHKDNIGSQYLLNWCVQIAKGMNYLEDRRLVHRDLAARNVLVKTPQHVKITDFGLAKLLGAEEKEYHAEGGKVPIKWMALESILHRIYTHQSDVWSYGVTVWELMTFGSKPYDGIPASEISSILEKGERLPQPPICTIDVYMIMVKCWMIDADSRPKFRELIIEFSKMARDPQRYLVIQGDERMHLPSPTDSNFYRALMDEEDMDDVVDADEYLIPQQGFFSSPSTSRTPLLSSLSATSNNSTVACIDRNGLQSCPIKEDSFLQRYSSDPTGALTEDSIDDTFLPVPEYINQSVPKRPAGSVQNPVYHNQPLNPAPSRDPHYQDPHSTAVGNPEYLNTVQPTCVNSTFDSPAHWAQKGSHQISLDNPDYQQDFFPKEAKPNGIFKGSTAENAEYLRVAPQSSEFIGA
Chain of Tyrosine-protein kinase Blk (P51451 whole entry): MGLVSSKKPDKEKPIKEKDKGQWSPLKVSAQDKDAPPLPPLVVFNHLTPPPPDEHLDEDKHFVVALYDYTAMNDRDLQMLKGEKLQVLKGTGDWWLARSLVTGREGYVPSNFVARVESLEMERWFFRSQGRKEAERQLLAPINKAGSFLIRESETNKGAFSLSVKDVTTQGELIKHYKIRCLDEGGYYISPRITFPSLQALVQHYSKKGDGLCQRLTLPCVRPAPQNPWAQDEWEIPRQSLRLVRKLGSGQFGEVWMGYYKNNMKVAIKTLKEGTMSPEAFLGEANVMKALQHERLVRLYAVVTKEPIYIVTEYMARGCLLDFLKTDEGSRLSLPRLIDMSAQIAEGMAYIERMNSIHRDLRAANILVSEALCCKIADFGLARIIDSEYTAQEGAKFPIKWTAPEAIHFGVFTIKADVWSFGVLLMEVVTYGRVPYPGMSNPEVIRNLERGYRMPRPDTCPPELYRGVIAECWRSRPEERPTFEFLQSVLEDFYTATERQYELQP
Chain of Receptor tyrosine-protein kinase erbB-4 (Q15303 whole entry): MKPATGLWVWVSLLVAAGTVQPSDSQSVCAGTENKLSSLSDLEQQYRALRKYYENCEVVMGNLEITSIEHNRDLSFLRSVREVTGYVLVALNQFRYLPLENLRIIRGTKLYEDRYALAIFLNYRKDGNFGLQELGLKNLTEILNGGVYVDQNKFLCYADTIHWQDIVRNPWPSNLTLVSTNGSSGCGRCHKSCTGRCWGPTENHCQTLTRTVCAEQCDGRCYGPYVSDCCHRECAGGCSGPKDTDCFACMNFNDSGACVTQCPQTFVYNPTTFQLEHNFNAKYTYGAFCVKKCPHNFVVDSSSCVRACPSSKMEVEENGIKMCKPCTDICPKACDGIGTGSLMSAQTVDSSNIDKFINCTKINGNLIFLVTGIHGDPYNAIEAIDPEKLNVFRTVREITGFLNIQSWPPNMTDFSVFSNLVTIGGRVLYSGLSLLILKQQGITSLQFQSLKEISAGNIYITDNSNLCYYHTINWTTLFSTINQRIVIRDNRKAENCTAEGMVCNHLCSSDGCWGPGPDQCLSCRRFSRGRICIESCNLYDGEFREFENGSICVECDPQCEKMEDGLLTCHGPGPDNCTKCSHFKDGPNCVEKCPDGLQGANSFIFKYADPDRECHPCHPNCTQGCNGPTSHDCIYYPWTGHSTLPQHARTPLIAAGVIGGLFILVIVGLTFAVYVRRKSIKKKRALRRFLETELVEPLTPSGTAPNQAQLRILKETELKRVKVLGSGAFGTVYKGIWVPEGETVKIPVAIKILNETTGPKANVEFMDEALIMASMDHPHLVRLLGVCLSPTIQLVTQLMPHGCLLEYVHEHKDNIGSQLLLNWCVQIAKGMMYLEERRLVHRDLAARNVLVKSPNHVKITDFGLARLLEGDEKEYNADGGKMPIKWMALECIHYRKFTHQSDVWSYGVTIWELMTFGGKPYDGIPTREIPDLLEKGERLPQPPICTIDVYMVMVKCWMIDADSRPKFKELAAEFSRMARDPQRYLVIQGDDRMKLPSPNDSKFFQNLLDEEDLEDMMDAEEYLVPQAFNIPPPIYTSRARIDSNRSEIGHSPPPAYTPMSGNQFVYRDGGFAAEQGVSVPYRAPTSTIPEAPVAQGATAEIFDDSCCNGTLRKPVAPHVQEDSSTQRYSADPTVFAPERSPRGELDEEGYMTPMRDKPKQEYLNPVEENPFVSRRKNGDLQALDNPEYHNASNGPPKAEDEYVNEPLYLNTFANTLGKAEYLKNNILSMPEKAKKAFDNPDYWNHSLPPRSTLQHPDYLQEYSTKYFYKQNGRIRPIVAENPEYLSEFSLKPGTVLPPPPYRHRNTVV

For `C=CC(=O)N(C)CCOc1c(N)ncnc1-c1ccc(CN2CCN(CC(C)C)CC2=O)c(C)c1`, the Kd came out at 6.5 µM in data set [1], 10 µM in [3], 0.89 µM in data set [4] and 30 µM in data set [6]. Further, the IC50 is 0.03 µM in data set [2], greater than 10 µM against Cytochrome P450 2C8 and greater than 10 µM against Cytochrome P450 2B6. Moreover, the Papp A→B amounted to 0.32 ×10⁻⁶ cm/s in the data set with MDR1 and 0.4 ×10⁻⁶ cm/s in the data set with BCRP. The compound also gave an inhibition in [5] greater than 90%. Besides, the CLint scaled in [7] was 154 mL/min/kg.

(Values after ChEMBL document CHEMBL5131445, “Optimization of a novel piperazinone series as potent selective peripheral covalent BTK inhibitors” (Bioorg Med Chem Lett, 2022).)
